Biological target: T1, hSK3 channels (Homo sapiens, UniProt Q9UGI6)
T1 construct: expressed in transfected cells; host or cells: HEK293
Experiment: Whole-cell patch-clamp recording of SK3 current in HEK293 cells expressing hSK3 channels
Type: cell-based
Protocol: The ionic current through small-conductance Ca^2+-activated K^+ channels (SK channels, subtype 3) is recorded using the whole-cell configuration of the patch-clamp technique in a classic patch-clamp set-up using HEK293 tissue culture cells expressing hSK3 channels as described in e.g. WO 2006/100212.
The SC100 value determined is defined as the Stimulating Concentration required for increasing the baseline current by 100%. The below SC100 value is an indication of the SK3 activating properties of the compounds of the invention.

The SC100 (Stimulating Concentration required for increasing the baseline current by 100%): 0.04 µM
SMILES: Cc1cc(C)n(-c2nc(Nc3ccc(Cl)cc3)c3ncn(Cc4ccccc4)c3n2)n1 [Compound 9.1, [9-Benzyl-2-(3,5-dimethyl-pyrazol-1-yl)-9H-purin-6-yl]-(4-chloro-phenyl)-amine]

Source: US20100152210A1, “PURINYL DERIVATIVES AND THEIR USE AS POTASSIUM CHANNEL MODULATORS” (NEURO SEARCH A/S/, priority 2007, published 2010)
